Results: patent publication US6559148B1, “Use of P2Y purinoreceptor antagonist for the treatment of ischemia reperfusion” (Consiglio Nazionale delle Ricerche, priority 1998, dated 2003)
“Also recorded” adds a separate entry of the source.

Test system: Wistar albino adult male rats
Assay: Transient global cerebral ischemia by 4-vessel occlusion (4-VO, Pulsinelli and Brierley method) for 30 minutes
Type: in vivo, rat
Settings: 30 minutes global ischemia
Method: By way of non-limiting example of the present invention, some experimental examples are given herein that show the effectiveness of the compounds modulating P2 purinoceptors, and in particular Basilen Blue, in the reduction of mortality induced by global ischemia. In particular, for such analysis Wistar albino adult male rats weighting 220-250 g have been utilized. Basilen Blue was diluted in saline solution. After a 12 hour fast, transient cerebral ischemia was induced in the rats by the Pulsinelli and Brierley method (Stroke, 10:267-272, 1979). The animals were anesthetized with 2% halotane in a mixture of 30% O2 and 70% N2O. Both vertebral arteries were electrically cauterized and thin claps from Teflon were loosely and reversibly placed around the common carotid arteries. The animals were allowed to recover from anesthesia and kept one per cage, under standard conditions of humidity, temperature and light. The following day, the rats were submitted to a mild anesthesia always with halothane and the claps previously placed around the common carotid arteries were tightened to produce the occlusion of 4 vessels (4-VO) for 30 minutes (in 24 animals). The absence of locomotion activity, the loss of corneal and righting reflexes and the presence of paralytic mydriasis, which took place after 1-2 minutes from the carotid occlusion, were the criteria according to which the animals were considered ischemic and included in the study. The rectal temperature was monitored during the following recovery period and kept constant at a temperature between 36.5 and 37° C. until the rats recovered the locomotion activity and the thermal homeostasis. […]
Wistar albino male rats, having a mean weight of 220-250 g, treated with saline solution (controls) or Basilen Blue were submitted for 30 minutes to global cerebral ischemia, the whole as described previously. The mortality was then monitored for two days following the carotid occlusion in a total of 24 animals (11 controls and 13 treated with Basilen Blue). […]

Basilen Blue E-3G (Reactive Blue 2)
neuronal damage to the hippocampus (neurons lost in CA1-CA2 sectors) (2 x 4,5 mg/kg i.p., vs saline controls): less severe | mortality index compared to control group (2 x 4,5 mg/kg i.p., vs saline controls, p>0,05 as printed): significantly lower; also recorded: reduces the mortality | animals died (mortality) within two days from the carotid occlusion (Basilen Blue 4,5 mg/kg i.p. 15 minutes before and 3 hours after carotid occlusion, control group 5 out of 11 died): 3 out of the 13
